Test results reported in PubChem BioAssay AID1963423 (Molecular Pharmacology Branch, DTP, NCI, 2024).
pIC50: −log10 of the molar value.

Tested on: 439559-082-T-J2-PDC complex spheroid growth
Test: Anticancer human tumor 439559-082-T-J2-PDC patient-derived colon adenocarcinoma cell line growth inhibition [Asc]
Details: for pIC50: curve of first compound; for viability, T/C: stronger effect = lower value
Protocol: Multicellular complex tumor spheroid response to apoptosis pathway targeting inhibitors Alrizomadlin, Pelcitoclax, and Dasminapant in combination with a variety of drugs and investigational agents in selected tumor cell lines
The MDM2 inhibitor alrizomadlin, the Bcl-2/Bcl-xL inhibitor pelcitoclax, and the IAPs inhibitor dasminapant were evaluated both individually and in combination with standard of care and investigational anticancer small molecules within a complex spheroid model of solid tumors. . Complex spheroids include a stromal component modeled by human endothelial cells (HUVEC) and fibroblasts modeled by human mesenchymal stem cells (MSCs). The concentration ranges selected for each drug and investigational agent were based upon clinically achievable concentrations if the clinical Cmax of the agent was known.
Compounds. The drugs and investigational agents: alrizomadlin (APG-115; NSC831270), pelcitoclax (APG-1252; NSC835773), dasminapant (APG-1387;NSC834197), TAK-243 (NSC785004), copanlisib (NSC809693), olaparib (NSC753686), talazoparib (NSC767125), cobimetinib (NSC 768068), eltanexor (KPT-8602, NSC 794443), abemaciclib (NSC 768073), sotorasib (NSC818433), adagrasib (NSC 831453), MRTX-1133 (NSC 836407), Iadademestat (ORY1001, NSC 806812), and RMC-4630 (NSC839698), were obtained from the NCI Developmental Therapeutics Program Chemical Repository. The FDA-approved anticancer drug set is available from the Developmental Therapeutics Program at https://dtp.cancer.gov/organization/dscb/obtaining/available plates.htm. […] The stock solutions were prepared in dimethyl sulfoxide (DMSO, Sigma-Aldrich, St. Louis, MO, cat. D2650) at 800-fold the tested concentration and stored at -70 degrees C prior to their use. All drugs and investigational agents were tested over a range starting from a high concentration at or near the clinical Cmax and decreasing in half-log increments. If the clinical Cmax for an agent had not been determined, the highest concentration tested was 10 microM.
The patient-derived cancer (PDC) cell lines include five colon adenocarcinomas: 186277-243-T-J2-PDC, 616215-338-R-J1-PDC, 439559-082-T-J2-PDC, 463943-066-T-J2-PDC, and 519858-162-T-J1-PDC; three pancreatic carcinomas: 323965-272-R-J2-PDC, 521955-158-R6-J3-PDC, and 521955-158-R2-J5-PDC; two uterine sarcomas: 327498-152-R-J2-PDC and 993429-296-R-J1-PDC; two rhabdomyosarcomas: 755483-174-R-J1-PDC and 772245-204-R-J1-PDC; two soft tissue sarcomas: 126254-015-R-J1-PDC and 494315-158-R-J1-PDC; two malignant fibrous histiocytomas: 317291-083-R-J1-PDC and 596521-263-R-J1-PDC; two breast carcinomas: 171881-019-R-J1-PDC and 885512-296-R-J2-PDC; and one ovarian carcinoma: 6556581-035-R-J-PDC were obtained from the NCI PDMR, (https://pdmr.cancer.gov). The established cell lines HSSY-2 synovial sarcoma (RRID:CVCL 8719), SYO-1 synovial sarcoma (RRID:CVCL_7146), MPNST malignant peripheral neural sheath tumor were obtained from the Sloan Kettering Institute. The following established cell lines were purchased from the American Type Culture Collection (ATCC, Manassas, VA), Sor the received from the NCI repository:, PANC-1 pancreatic carcinoma (CRL-1469, RRID:CVCL_0480), OVCAR-5 ovarian carcinoma (RRID:CVCL_1628), OVCAR-8 ovarian carcinoma (RRID:CVCL_1629), , MCF-7 breast carcinoma (CRL-12584, RRID:CVCL_0031), MDA-MB-231 breast carcinoma (CRL-12532, RRID:CVCL_0062), NCI-H1876 small cell lung carcinoma (CRL-5902, RRID:CVCL_1503), NCI-H510A small cell lung carcinoma (HTB-184, RRID:CVCL_1565), NCI-H1417 (CRL-5869, RRID:CVCL_1469), and NCI-H196 small cell lung carcinoma (CRL-5823, RRID:CVCL_1509). Dr. Peter Houghton (Greehey Children's Cancer Research Institute, University of Texas Health Science Center, San Antonio, TX) provided Rh-18 rhabdomyosarcoma (RRID:CVCL_1659). Pooled donor human umbilical vein endothelial cells (HUVEC, Lonza, cat. CC-2519) and human mesenchymal stem cells (hMSC, Lonza, cat. PT-2501) were purchased from Lonza (Walkersville, MD).
Cell Culture. […]

[1] = second compound 0.03 µM, first compound 0.00316 µM
[2] = second compound 0.03 µM, first compound 0.01 µM
[3] = second compound 0.03 µM, first compound 0.0316 µM
[4] = second compound 0.03 µM, first compound 0.1 µM
[5] = second compound 0.0949 µM, first compound 0.00316 µM
[6] = second compound 0.0949 µM, first compound 0.01 µM
[7] = second compound 0.0949 µM, first compound 0.0316 µM
[8] = second compound 0.0949 µM, first compound 0.1 µM
[9] = second compound 0.3 µM, first compound 0.00316 µM
[10] = second compound 0.3 µM, first compound 0.01 µM
[11] = second compound 0.3 µM, first compound 0.0316 µM
[12] = second compound 0.3 µM, first compound 0.1 µM
[13] = second compound 0.949 µM, first compound 0.00316 µM
[14] = second compound 0.949 µM, first compound 0.01 µM
[15] = second compound 0.949 µM, first compound 0.0316 µM
[16] = second compound 0.949 µM, first compound 0.1 µM
[17] = second compound 3 µM, first compound 0.00316 µM
[18] = second compound 3 µM, first compound 0.01 µM
[19] = second compound 3 µM, first compound 0.0316 µM
[20] = second compound 3 µM, first compound 0.1 µM
[21] = second compound 0.03 µM, first compound 0.316 µM
[22] = second compound 0.03 µM, first compound 1 µM
[23] = second compound 0.0949 µM, first compound 0.316 µM
[24] = second compound 0.0949 µM, first compound 1 µM
[25] = second compound 0.3 µM, first compound 0.316 µM
[26] = second compound 0.3 µM, first compound 1 µM
[27] = second compound 0.949 µM, first compound 0.316 µM
[28] = second compound 0.949 µM, first compound 1 µM
[29] = second compound 3 µM, first compound 0.316 µM
[30] = second compound 3 µM, first compound 1 µM
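Also: spheroids exposed to agents for 7 days starting day 3 after seeding.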
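For viability, T/C in this document: percent of DMSO vehicle control viability with 100% = vehicle.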

| pIC50 (second compound 0.03 µM) | pIC50 (second compound 0.0949 µM) | pIC50 (second compound 0.3 µM) | pIC50 (second compound 0.949 µM) | pIC50 (second compound 3 µM) | Compound | viability, T/C [1] [%] | viability, T/C [2] [%] | viability, T/C [3] [%] | viability, T/C [4] [%] | viability, T/C [5] [%] | viability, T/C [6] [%] | viability, T/C [7] [%] | viability, T/C [8] [%] | viability, T/C [9] [%] | viability, T/C [11] [%] | viability, T/C [12] [%] | viability, T/C [15] [%] | viability, T/C [16] [%] | viability, T/C [19] [%] | viability, T/C [20] [%] | also measured |
| --- | --- | --- | --- | --- | --- | --- | --- | --- | --- | --- | --- | --- | --- | --- | --- | --- | --- | --- | --- | --- | --- |
| < 7.00 | < 7.00 | < 7.00 | < 7.00 | < 7.00 | Cn1ncnc1[C@H]1c2n[nH]c(=O)c3cc(F)cc(c23)N[C@@H]1c1ccc(F)cc1 + CCN1C(C(=O)NC23CCC(C(=O)O)(CC2)CC3)C(c2cccc(Cl)c2F)C2(C(=O)Nc3cc(Cl)ccc32)C12CCCCC2 | 103 | 100 | 101 | 95.3 | 106 | 83.4 | 94.6 | 96.6 | 109 | 96.2 | 101 | 88.3 | 103 | 84.4 | 91.6 | viability, T/C (second compound 0.03 µM, first compound 0.000316 µM): 106%; viability, T/C (second compound 0.03 µM, first compound 0.001 µM): 109%; viability, T/C (second compound 0.0949 µM, first compound 0.000316 µM): 103%; viability, T/C (second compound 0.0949 µM, first compound 0.001 µM): 104%; viability, T/C (second compound 0.3 µM, first compound 0.000316 µM): 98.8%; viability, T/C (second compound 0.3 µM, first compound 0.001 µM): 113%; viability, T/C [10]: 86.2%; viability, T/C (second compound 0.949 µM, first compound 0.000316 µM): 107%; viability, T/C (second compound 0.949 µM, first compound 0.001 µM): 111%; viability, T/C [13]: 108%; viability, T/C [14]: 99%; viability, T/C (second compound 3 µM, first compound 0.000316 µM): 89%; viability, T/C (second compound 3 µM, first compound 0.001 µM): 94.7%; viability, T/C [17]: 101%; viability, T/C [18]: 86.6% |
| < 5.00 | < 5.00 | < 5.00 | < 5.00 | < 5.00 | O=C(c1cc(Cc2n[nH]c(=O)c3ccccc23)ccc1F)N1CCN(C(=O)C2CC2)CC1 + CCN1C(C(=O)NC23CCC(C(=O)O)(CC2)CC3)C(c2cccc(Cl)c2F)C2(C(=O)Nc3cc(Cl)ccc32)C12CCCCC2 | – | – | 106 | 103 | – | – | 104 | 113 | – | 99.5 | 112 | 109 | 107 | 90.5 | 100 | viability, T/C [21]: 105%; viability, T/C [22]: 87.5%; viability, T/C (second compound 0.03 µM, first compound 3.16 µM): 97.1%; viability, T/C (second compound 0.03 µM, first compound 10 µM): 87.8%; viability, T/C [23]: 104%; viability, T/C [24]: 96.5%; viability, T/C (second compound 0.0949 µM, first compound 3.16 µM): 93.4%; viability, T/C (second compound 0.0949 µM, first compound 10 µM): 100%; viability, T/C [25]: 111%; viability, T/C [26]: 85%; viability, T/C (second compound 0.3 µM, first compound 3.16 µM): 91%; viability, T/C (second compound 0.3 µM, first compound 10 µM): 94.9%; viability, T/C [27]: 113%; viability, T/C [28]: 89.6%; viability, T/C (second compound 0.949 µM, first compound 3.16 µM): 90.4%; viability, T/C (second compound 0.949 µM, first compound 10 µM): 94.9%; viability, T/C [29]: 104%; viability, T/C [30]: 86.7%; viability, T/C (second compound 3 µM, first compound 3.16 µM): 88.6%; viability, T/C (second compound 3 µM, first compound 10 µM): 88.8% |
| 6.65 | 6.63 | 6.63 | 6.76 | 7.01 | O=C(c1ccc(F)c(F)c1Nc1ccc(I)cc1F)N1CC(O)([C@@H]2CCCCN2)C1 + CCN1C(C(=O)NC23CCC(C(=O)O)(CC2)CC3)C(c2cccc(Cl)c2F)C2(C(=O)Nc3cc(Cl)ccc32)C12CCCCC2 | 103 | 101 | 83.8 | 61.6 | 111 | 106 | 84.8 | 58.2 | 98.7 | 91.7 | 64.3 | 88.4 | 54.5 | 78.1 | 47 | viability, T/C [21]: 46.9%; viability, T/C [22]: 22.5%; viability, T/C [23]: 52.6%; viability, T/C [24]: 16.3%; viability, T/C [10]: 110%; viability, T/C [25]: 47.2%; viability, T/C [26]: 8.43%; viability, T/C [13]: 111%; viability, T/C [14]: 93.5%; viability, T/C [27]: 41.1%; viability, T/C [28]: 16.2%; viability, T/C [17]: 96.8%; viability, T/C [18]: 81.7%; viability, T/C [29]: 27%; viability, T/C [30]: 12.2% |
